Experimental data as given in patent publication US9844550B2, “Phtalazinone derivatives and manufacturing process thereof” (ILDONG PHARM CO., LTD., priority 2013, dated 2017).

Tests used:
[1] = tested on: MDA-MB-436 breast cancer cell line; assay: Cell viability assay (MDA-MB-436); type: cell-based; conditions: Homo sapiens, 144 h; MDA-MB-436 cells, treated 6 days
In short: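 MDA-MB-436 breast cancer cells in DMEM/F12 with 10% FBS, treated 24 h after seeding with graded compound concentrations for 6 days at 37 °C, 5% CO2, medium changed every 3 days. Viability read with a fluorescence reagent; IC50 derived.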

Tankyrase-1 = target: T1, Tankyrase-1 (Homo sapiens, UniProt O95271); assay: Tankyrase-1 enzyme assay; type: biochemical; conditions: 1 hr at room temperature, chemiluminescent readout
T1 sequence (O95271 1-1327): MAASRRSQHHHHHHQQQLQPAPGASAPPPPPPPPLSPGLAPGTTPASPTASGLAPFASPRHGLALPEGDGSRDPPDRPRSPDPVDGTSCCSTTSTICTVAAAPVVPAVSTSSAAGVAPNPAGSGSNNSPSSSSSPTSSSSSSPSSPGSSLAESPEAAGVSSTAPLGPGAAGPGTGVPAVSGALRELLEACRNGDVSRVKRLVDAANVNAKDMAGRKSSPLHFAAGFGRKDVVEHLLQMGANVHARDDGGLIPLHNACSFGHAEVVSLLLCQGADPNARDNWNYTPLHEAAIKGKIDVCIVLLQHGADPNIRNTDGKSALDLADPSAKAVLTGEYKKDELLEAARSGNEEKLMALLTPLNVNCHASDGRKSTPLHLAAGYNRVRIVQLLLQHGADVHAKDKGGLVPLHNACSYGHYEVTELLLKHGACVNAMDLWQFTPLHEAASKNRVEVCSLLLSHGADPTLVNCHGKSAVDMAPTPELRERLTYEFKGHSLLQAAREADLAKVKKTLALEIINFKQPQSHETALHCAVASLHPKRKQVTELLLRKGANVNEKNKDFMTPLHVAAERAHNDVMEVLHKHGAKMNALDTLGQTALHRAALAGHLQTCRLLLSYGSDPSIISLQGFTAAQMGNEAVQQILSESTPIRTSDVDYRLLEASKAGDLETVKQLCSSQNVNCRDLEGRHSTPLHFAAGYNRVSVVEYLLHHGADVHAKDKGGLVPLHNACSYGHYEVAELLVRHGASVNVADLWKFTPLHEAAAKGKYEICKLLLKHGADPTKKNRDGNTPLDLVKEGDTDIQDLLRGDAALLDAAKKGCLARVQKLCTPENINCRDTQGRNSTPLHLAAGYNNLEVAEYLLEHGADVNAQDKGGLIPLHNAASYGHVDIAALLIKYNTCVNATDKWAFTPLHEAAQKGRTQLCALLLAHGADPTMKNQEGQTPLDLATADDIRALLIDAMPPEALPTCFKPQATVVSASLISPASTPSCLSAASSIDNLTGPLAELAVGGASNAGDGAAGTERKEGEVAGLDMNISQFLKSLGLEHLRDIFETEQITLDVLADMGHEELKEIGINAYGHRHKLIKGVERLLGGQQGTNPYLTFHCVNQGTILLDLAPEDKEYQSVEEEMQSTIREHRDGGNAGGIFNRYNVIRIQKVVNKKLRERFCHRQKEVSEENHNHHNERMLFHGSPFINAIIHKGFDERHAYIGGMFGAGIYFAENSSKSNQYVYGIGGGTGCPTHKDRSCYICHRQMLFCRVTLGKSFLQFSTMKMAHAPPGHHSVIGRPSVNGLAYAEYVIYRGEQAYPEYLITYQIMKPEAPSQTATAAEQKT
Procedure: 5. Tankyrase-1 Enzyme Assay
Tankyrase-1 enzyme assay was performed to determine Tankyrase-1 inhibitory activity of compounds in the present invention. The enzymatic reaction was conducted by coating the plate with substrates of tankyrase-1, and then the plate was washed. Compounds in the present invention serially diluted in DMSO were added to the reaction buffer activating tankyrase-1, and incubated for 1 hr at room temperature. After stopping the reaction, the plate was washed, and streptavidin-HRP was added to each well. IC50 was calculated by adding chemiluminescent substrate and immediately reading the sample in a microplate reader (Biotek).

[2] = tested on: Capan-1 Human pancreatic cancer cells; assay: In vivo antitumoral efficacy, Capan-1 subcutaneous xenograft; conditions: Capan-1 xenograft in Balb/c nude mice
Procedure: To evaluate the in vivo antitumoral efficacy, the invented compounds (I-80˜171) was determined as a result to follows.
Capan-1 Human pancreatic cancer cells were established as subcutaneous xenografts by injection of 8×10^6 cells into the flanks of adult female Balb/c nude mice. Mice with established tumors (160-250 mm^3) were selected for study (n=6/treatment group). The test compounds were formulated in DW and administered orally (po) at a dose of 30˜200 mg/kg. The vehicle alone was administered to control groups. Animals were dosed 5 days per week (Monday through Friday) for 3 consecutive weeks.
Animals were weighed and tumor size was determined twice weekly by caliper measurements, and tumor volumes were calculated (volume=[…] (mm^3), where l and w refer to the larger and smaller dimensions collected at each measurement). The mean tumor volumes of each group were calculated. The change in mean treated tumor volume was divided by the change in mean control tumor volume, multiplied by 100 and subtracted from 100% to give the tumor growth inhibition for each group.

Mouse pharmacokinetics = type: in vivo; design: concentration or dose not given beside the values; conditions: Balb/c male mice, blood samples 15 to 1140 min, LC-MS/MS
Procedure: To evaluate the pharmacokinetics test, the invented compounds (from I-25 to I-1171) were determined as follows. Blood samples are collected at 15, 30, 60, 120, 240, 480, 1140 min. Quantification is by using a LC-MS/MS method specific to the selected compound. Pharmacokinetics parameters are calculated using WinNonLinnon compartmental analysis software.

[3] = tested on: Capan-1 pancreatic cancer cell line; assay: Cell viability assay (Capan-1); type: cell-based; conditions: Homo sapiens, 240 h; Capan-1 cells, treated 10 days
Procedure: 3. Cell Viability Assay (Capan-1)
Cell viability assay was performed by using Capan-1 cell line to measure cytotoxicity of compounds in the present invention. Capan-1 pancreatic cancer cell line was seeded into 96-well plates at 37° C. under 5% CO2 atmosphere using IMDM (Sigma) containing 10% FBS (Hyclone). After 24 hr incubation, cells were treated with the invented compounds at various concentrations for 10 days. After 7-day incubation, the medium was changed. 10 days later, A fluorescence reagent was used to determine the IC50 values.

[4] = tested on: LNCaP prostate cancer cell line; assay: Cell viability assay (LNCaP); type: cell-based; conditions: Homo sapiens, 264 h; LNCaP cells, treated 11 days
Procedure: 4. Cell Viability Assay (LNCaP)
Cell viability assay was performed by using LNCaP cell line to measure cytotoxicity of compounds in the present invention. LNCaP prostate cancer cell line was seeded into 96-well plates at 37° C. under 5% CO2 atmosphere using RPMI-1640 (Hyclone) containing 10% FBS (Hyclone). After 24 hr incubation, cells were treated with the invented compounds at various concentrations for 11 days. The medium was changed every 3 to 4 day. 11 days later, A fluorescence reagent was used to determine the IC50 values.

[5] = 100 mg/kg po qd x 5, 3 consecutive weeks
[6] = 200 mg/kg po qd x 5, 3 consecutive weeks

Row | Compound | IC50 [1] [nM] | IC50 (Tankyrase-1) [nM] | AUC (Mouse pharmacokinetics) [ng·h/mL] | IC50 [3] [nM] | IC50 [4] [nM] | % TGI [2, 5] [%] | % TGI [2, 6] [%]
1 | CC(C)(C)NCC1CN(C(=O)c2cc(Cc3n[nH]c(=O)c4ccccc34)ccc2F)C1 [Compound I-147, 4-(3-(3-((tert-butylamino)methyl)azetidine-1-carbonyl)-4-fluorobenzyl)phthalazin-1(2H)-one] | 300 to 1000 | > 1000 | – | – | – | – | –
2 | Cl.O=C(c1cc(Cc2n[nH]c(=O)c3ccccc23)ccc1F)N1CC(NC2CCCC2)C1 [Compound I-158, 4-(3-(3-(cyclopentylamino)azetidine-1-carbonyl)-4-fluorobenzyl)phthalazin-1(2H)-one hydrochloride] | – | – | – | – | – | 44.9 | 80.9
3 | Cl.O=C(c1cc(Cc2n[nH]c(=O)c3ccccc23)ccc1F)N1CC(NCC2CC2)C1 [Compound I-160, 4-(3-(3-((cyclopropylmethyl)amino)azetidine-1-carbonyl)-4-fluorobenzyl)phthalazin-1(2H)-one hydrochloride] | – | – | 2250 | – | – | 55.8 | 88.2
4 | CC(C)NC1CN(C(=O)c2cc(Cc3n[nH]c(=O)c4ccccc34)ccc2F)C1 [Compound I-32, 4-(4-fluoro-3-(3-(isopropylamino)azetidine-1-carbonyl)benzyl)phthalazin-1(2H)-one] | ≤ 5 | > 1000 | – | 50 to 300 | 50 to 300 | – | –
5 | O=C(c1cc(Cc2n[nH]c(=O)c3ccccc23)ccc1F)N1CC[C@@H](Nc2ccc(C(F)(F)F)cn2)C1 [Compound I-131, (R)-4-(4-fluoro-3-(3-((5-(trifluoromethyl)pyridin-2-yl)amino)pyrrolidine-1-carbonyl)benzyl)phthalazin-1(2H)-one] | 50 to 300 | – | – | – | 5 to 50 | – | –
6 | O=C(c1cc(Cc2n[nH]c(=O)c3ccccc23)ccc1F)N1CC(NC2(C(F)(F)F)CC2)C1 [Compound I-80, 4-(4-fluoro-3-(3-((1-(trifluoromethyl)cyclopropyl)amino)azetidine-1-carbonyl)benzyl)phthalazin-1(2H)-one] | ≤ 5 | – | 2020 | 50 to 300 | 50 to 300 | 75.9 | 103.9
7 | CC(C)CNC1CN(C(=O)c2cc(Cc3n[nH]c(=O)c4ccccc34)ccc2F)C1 [Compound I-35, 4-(4-fluoro-3-(3-(isobutylamino)azetidine-1-carbonyl)benzyl)phthalazin-1(2H)-one] | ≤ 5 | – | 2250 | 300 to 1000 | > 1000 | – | –

Now from value to compound, other results behind:

Row | IC50 [1] [nM] | IC50 (Tankyrase-1) [nM] | AUC (Mouse pharmacokinetics) [ng·h/mL] | IC50 [3] [nM] | IC50 [4] [nM] | Compound | % TGI [2, 5] [%] | % TGI [2, 6] [%]
8 | ≤ 5 | – | 169 | 300 to 1000 | > 1000 | C#CCNCC1CN(C(=O)c2cc(Cc3n[nH]c(=O)c4ccccc34)ccc2F)C1 [Compound I-149, 4-(4-fluoro-3-(3-((prop-2-yn-1-ylamino)methyl)azetidine-1-carbonyl)benzyl)phthalazin-1(2H)-one] | – | –
9 | ≤ 5 | 50 to 300 | – | – | – | O=C(c1cc(Cc2n[nH]c(=O)c3ccccc23)ccc1F)N1CC[C@@H](Nc2ncc(Br)cn2)C1 [Compound I-130, (R)-4-(3-(3-((5-bromopyrimidin-2-yl)amino)pyrrolidine-1-carbonyl)-4-fluorobenzyl)phthalazin-1(2H)-one] | – | –
10 | ≤ 5 | > 1000 | 472 | 50 to 300 | 50 to 300 | O=C(c1cc(Cc2n[nH]c(=O)c3ccccc23)ccc1F)N1CC(NC2CCCC2)C1 [Compound I-27, 4-(3-(3-(cyclopentylamino)azetidine-1-carbonyl)-4-fluorobenzyl)phthalazin-1(2H)-one] | – | –
11 | 300 to 1000 | > 1000 | – | – | 5 to 50 | O=C(c1cc(Cc2n[nH]c(=O)c3ccccc23)ccc1F)N1CC(Nc2ccc(Cl)nn2)C1 [Compound I-114, 4-(3-(3-((6-chloropyridazin-3-yl)amino)azetidine-1-carbonyl)-4-fluorobenzyl)phthalazin-1(2H)-one] | – | –
12 | 50 to 300 | > 1000 | – | – | – | O=C(c1cc(Cc2n[nH]c(=O)c3ccccc23)ccc1F)N1CC(CNc2ccccc2)C1 [Compound I-150, 4-(4-fluoro-3-(3-((phenylamino)methyl)azetidine-1-carbonyl)benzyl)phthalazin-1(2H)-one] | – | –
13 | ≤ 5 | – | 1250 | 300 to 1000 | > 1000 | CCCCNC1CN(C(=O)c2cc(Cc3n[nH]c(=O)c4ccccc34)ccc2F)C1 [Compound I-53, 4-(3-(3-(butylamino)azetidine-1-carbonyl)-4-fluorobenzyl)phthalazin-1(2H)-one] | – | –
14 | ≤ 5 | > 1000 | 1020 | 300 to 1000 | 300 to 1000 | O=C(c1cc(Cc2n[nH]c(=O)c3ccccc23)ccc1F)N1CC(NCC2CC2)C1 [Compound I-33, 4-(3-(3-((cyclopropylmethyl)amino)azetidine-1-carbonyl)-4-fluorobenzyl)phthalazin-1(2H)-one] | – | –
15 | 5 to 50 | – | 567 | 300 to 1000 | > 1000 | COC[C@@H](C)NC1CN(C(=O)c2cc(Cc3n[nH]c(=O)c4ccccc34)ccc2F)C1 [Compound I-83, (R)-4-(4-fluoro-3-(3-((1-methoxypropan-2-yl)amino)azetidine-1-carbonyl)benzyl)phthalazin-1(2H)-one] | – | –
16 | 5 to 50 | – | 1090 | 300 to 1000 | > 1000 | CC(C)CNCC1CN(C(=O)c2cc(Cc3n[nH]c(=O)c4ccccc34)ccc2F)C1 [Compound I-146, 4-(4-fluoro-3-(3-((isobutylamino)methyl)azetidine-1-carbonyl)benzyl)phthalazin-1(2H)-one] | – | –
